# Test results reported in US8920793B2, “Biodegradable PAOX polymer particle with cationic property” (Industrial Cooperation Foundation Chonbuk National …, priority 2011, dated 2014).
# Columns and labels:
# [1] = oral intake; cited from earlier work
# [2] = tested on: acute liver failure induced by acetaminophen (APAP); test: ALT assay in mouse models of APAP-induced acute liver failure; type: in vivo; conditions: 10 ug of free PEN, 1 hour before APAP
# Description: On the assumption that the PAOX polymers rapidly deliver drugs to the cytoplasm due to high hydrolysis rate and proton sponge effects, which leads to more rapid treatment, mouse models of acute liver failure (ALF) were used as experimental models, and pentoxifylline (PEN) was used as a drug model.
# In order to investigate the cytotoxicity of PAOX-PEN particles prepared by the method as described in the above section 7, a tetrazolium-based colorimetric MTT assay was performed. Moreover, an alanine transaminase (ALT) assay, which is mainly used for evaluation of liver functions, was performed to evaluate the effect of PAOX-PEN particles in terms of the amount of drug loaded in PAOX-PEN particles and daily dosages.
# 6-week-old BALB/c female mice were used for the experiments and classified into each group. The PAOX-PEN particles were dispersed in 10 mg/mL (PBS), and each of 50 μL, 100 μL, and 200 μL of the resulting solution was injected into mouse tail veins. In the case of free PEN, the drug solution was administered with the calculation of dose and, only PBS was administered to the negative control groups. After 1 hour, 200 μL of APAP in a concentration of 25 mg/mL was injected intraperitoneally to induce acute liver failure. The mice were sacrificed 10 hours later, and blood was taken from the heart. […]
# [3] = tested on: RAW 264.7 cells; test: Catalase delivery: PMA-induced hydrogen peroxide, DCFH-DA fluorescence by flow cytometry; type: cell-based; conditions: pretreatment 12 hours, then PMA stimulation
# Description: To investigate the ability of PAOX particles to deliver protein drugs, catalase was used as a model protein drug. RAW 264.7 cells (1×10^6 cells) were pretreated with catalase, catalase-loaded PAOX particles, catalase-loaded PLGA particles or empty PAOX particles for 12 hours and then stimulated with 1 μg of PMA (phorbol-12-myristate-13-acetate) to induce the production of hydrogen peroxide. PMA was used to stimulate cells for the production of reactive oxygen species including hydrogen peroxide. Then, DCFH-DA (dichlorofluorescin-diacetate) was added to each well and incubated for 30 minutes. The efficacy of PAOX particles to deliver catalase to cells was evaluated by measuring the intensity of the fluorescence produced by DCFH-DA with a flow cytometry caliber (Becton Dickinson, US).
molecule,measurement,setting,value
"OCC1CCC(CO)CC1 (stereo not drawn) [1,4-cyclohexanedimethanol]",LD50,[1],"3,200 mg/kg"
"CC(=O)CCCCn1c(=O)c2c(ncn2C)n(C)c1=O [free PEN, pentoxifylline]",ALT reduction effect,[2],no ALT reduction effects
"catalase (protein, UniProt P00432 2-527, looked up) Catalase: ADNRDPASDQMKHWKEQRAAQKPDVLTTGGGNPVGDKLNSLTVGPRGPLLVQDVVFTDEMAHFDRERIPERVVHAKGAGAFGYFEVTHDITRYSKAKVFEHIGKRTPIAVRFSTVAGESGSADTVRDPRGFAVKFYTEDGNWDLVGNNTPIFFIRDALLFPSFIHSQKRNPQTHLKDPDMVWDFWSLRPESLHQVSFLFSDRGIPDGHRHMNGYGSHTFKLVNANGEAVYCKFHYKTDQGIKNLSVEDAARLAHEDPDYGLRDLFNAIATGNYPSWTLYIQVMTFSEAEIFPFNPFDLTKVWPHGDYPLIPVGKLVLNRNPVNYFAEVEQLAFDPSNMPPGIEPSPDKMLQGRLFAYPDTHRHRLGPNYLQIPVNCPYRARVANYQRDGPMCMMDNQGGAPNYYPNSFSAPEHQPSALEHRTHFSGDVQRFNSANDDNVTQVRTFYLKVLNEEQRKRLCENIAGHLKDAQLFIQKKAVKNFSDVHPEYGSRIQALLDKYNEEKPKNAVHTYVQHGSHLSAREKANL",inhibitory effect on PMA-induced fluorescence,[3],no inhibitory effects
